We go through eleven molecules from article PMC6718946 (Toxicology Reports, 2019).

Data set [1] deals with AChE. The settings on record: cited from earlier work.
Data set [2] concerns AChE. The settings on record: cited from earlier work. This is another data set of the same source.
In data set [3] the target is acetylcholinesterase (AChE) (Electrophorus electricus, UniProt O42275). The settings on record: for IC50: estimated from Fig. 1.
Data set [4] relates to Artemia salina. Nature of the data set: Toxicology assay on Artemia salina model. The settings on record: for Mortality of A. salina: 24 h.
Data set [5] relates to AChE. The settings on record: cited from earlier work. The source holds these as a separate data set.
The subject of data set [6] is Artemia salina. The settings on record: in vivo; cited from earlier work.

“And” between values parts separate entries of the source, which are not always exact repeats. Identical values can stand only once. Like-named read-outs stand apart in the source and are kept apart here.

The term Ki denotes a measure of affinity in units of concentration, obtained from inhibition or displacement.

acetylcholinesterase (AChE), sequence (O42275 24-633): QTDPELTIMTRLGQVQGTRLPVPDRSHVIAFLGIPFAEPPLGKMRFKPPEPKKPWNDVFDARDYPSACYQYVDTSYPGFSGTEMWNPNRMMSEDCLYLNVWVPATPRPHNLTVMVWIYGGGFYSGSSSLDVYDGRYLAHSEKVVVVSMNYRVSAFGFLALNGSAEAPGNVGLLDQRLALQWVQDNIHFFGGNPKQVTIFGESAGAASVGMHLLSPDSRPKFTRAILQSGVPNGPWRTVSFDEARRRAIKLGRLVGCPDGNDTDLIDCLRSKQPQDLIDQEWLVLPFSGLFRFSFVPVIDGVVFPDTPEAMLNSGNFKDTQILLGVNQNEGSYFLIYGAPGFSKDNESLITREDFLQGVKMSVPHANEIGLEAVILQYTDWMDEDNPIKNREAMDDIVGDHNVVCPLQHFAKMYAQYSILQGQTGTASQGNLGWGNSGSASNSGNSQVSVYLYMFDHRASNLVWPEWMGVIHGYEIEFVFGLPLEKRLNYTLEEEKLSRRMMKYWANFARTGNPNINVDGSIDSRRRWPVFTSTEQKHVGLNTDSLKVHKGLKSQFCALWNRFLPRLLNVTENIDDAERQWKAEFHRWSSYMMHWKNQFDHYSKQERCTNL

In the case of `C[n+]1c2ccccc2cc2ccccc21` [N-methylacridinium], the Inhibition mechanism entry with AChE [1] was “competitive”.

Consider `CC12CCC(CC1=O)C2(C)C` (centres unmarked) [camphor], for which, in the data set with AChE [2], the Inhibition mechanism result is reported as “mixed AChE inhibition”.

Take `C=CCNC(=O)N1C[C@H]2C[C@H](C1)c1cccc(=O)n1C2` [Compound A-63, N-Allylcytisine-12-carbamide]: the “Inhibition mechanism” value is given as “mixed” in data set [3] (Lineweaver-Burk analysis) and “Mixed inhibition” in data set [3] (Lineweaver-Burk analysis, listed as A63). The IC50 in data set [3] (30 °C, pH 8.0, 1.25% DMSO) was ~1470 µM and 1470 µM; in data set [3] (expressed in g L^−1), “≈ 0.4 g L^−1”; in data set [3] (expressed in ppm), 400 ppm. In addition, the “α´ (effect on Vmax)” value in data set [3] (mixed inhibition parameter) was 0.05. In addition, the “Mortality of A. salina” value in the data set on Artemia salina [4] (at 1000 ppm) and in the data set on Artemia salina [4] (at 2000 ppm) was 3% in each case. Moreover, the “Toxicity classification according to Artemia salina test” value in the data set with Artemia salina [4] (class by percent mortality of nauplii) is given as “non-toxic (0–10% non-toxic compound)”. The “Effect on A. salina viability” value with Artemia salina [4] (concentration less than 1000 ppm) is “did not affect”; in the data set with Artemia salina [4] (concentration less than 2000 ppm), “not affected”.

Consider `C=CCc1ccc(OC)cc1` [estragole], for which, in the data set with AChE [2], the Inhibition mechanism result was “mixed AChE inhibition”.

Take `COc1ccc2c3c1O[C@H]1C[C@@H](O)C=C[C@@]31CCN(C)C2` [galanthamine]: the Inhibition mechanism result with AChE [5] was “competitive”.

Consider `CC[N+](C)(C)c1cccc(O)c1` [edrophonium], for which, in the data set with AChE [1], the Inhibition mechanism entry is on record as “competitive”.

Take `O=c1cccc2n1CC1CC2CN(C(=S)NC23CC4CC(CC(C4)C2)C3)C1` (centres unmarked) [Compound U-12, N-1-Adamantylcytisine-12-thiocarbamide]: in data set [3] (Lineweaver-Burk analysis), the “Inhibition mechanism” value is on record as “Uncompetitive”. In addition, the IC50 in data set [3] (30 °C, pH 8.0, 1.25% DMSO) was ~3390 µM and 3390 µM; in data set [3] (expressed in g L^−1), “≈ 1.4 g L^−1”; in data set [3] (expressed in ppm), 1400 ppm. Besides, the Ki in data set [3] (read-out: Ki (inhibition constant), Lineweaver-Burk analysis) came out at 70 µM.

In the case of Cytisine-12-carbamide [Compound A-36], the “Inhibition mechanism” value in data set [3] (Lineweaver-Burk analysis) is reported as “Competitive”.

In the case of `CNC(=O)Oc1ccc2c(c1)[C@]1(C)CCN(C)[C@@H]1N2C` [Eserine], in the data set with Artemia salina [6], the Effect on larvae entry is “larval paralysis” and the “Inhibition of AChE activity in Artemia salina” value is listed as “strongly inhibit”.

Turning to `C=C(C)C1CC=C(C)C(=O)C1` (centres unmarked) [S-carvone], in the data set with AChE [2], the Inhibition mechanism entry was “mixed AChE inhibition”.

Take “1-Hydroxyquinopimaric acid [Compound U-201]”: the “Inhibition mechanism” value in data set [3] (Lineweaver-Burk analysis) was “Competitive”.
